{"source": "patent US8193152B2", "about": "(priority 2004, dated 2012)", "origin": "cited, not measured here", "key": {"[1]": {"details": "in vivo"}, "[2]": {"details": "in vivo", "remark": "listed apart in the source"}, "mycobacterial infection": {"test_system": "mycobacterial infection", "details": "mouse, in vivo"}, "mycobacteria": {"test_system": "mycobacteria", "details": "human, in vivo"}, "PIC": {"test_system": "PIC", "details": "guinea pig, in vivo"}, "Machupo": {"test_system": "Machupo", "details": "rhesus monkey, in vivo"}}, "note": "Where two headings read alike, the source gives them in different places."}
{"molecule": "N[C@H](CCC(=O)N[C@@H](Cc1c[nH]c2ccccc12)C(=O)O)C(=O)O", "note": "[SCV-07, γ-D-glutamyl-L-tryptophan]", "values": [{"measurement": "expression of Thy-1.2", "setting": "bone marrow cells", "value": "stimulates expression"}, {"measurement": "Con-A-induced interleukin-2 (IL-2) production", "setting": "spleen lymphocytes", "value": "increases"}, {"measurement": "IL-2 receptor expression", "setting": "spleen lymphocytes", "value": "increases"}, {"measurement": "Con-A-induced thymocyte and lymphocyte proliferation", "setting": "thymocyte and lymphocyte", "value": "increases"}, {"measurement": "immunostimulatory effect", "setting": "[1]", "value": "strong immunostimulatory effect"}, {"measurement": "immunostimulatory effect", "setting": "[2]", "value": "strong immunostimulatory effect"}, {"measurement": "IFNγ production by Con-A-induced spleen cells", "setting": "mycobacterial infection", "value": "higher"}, {"measurement": "IL-4 production by Con-A-induced spleen cells", "setting": "mycobacterial infection", "value": "lower"}, {"measurement": "Phagocytic activity by peritoneal macrophages", "setting": "mycobacterial infection", "value": "markedly increased"}, {"measurement": "lung damage", "setting": "mycobacterial infection", "value": "significantly decrease"}, {"measurement": "cavity healing and symptoms of tuberculosis", "setting": "mycobacteria", "value": "positive effect"}, {"measurement": "drug-induced adverse effects", "setting": "mycobacteria", "value": "without any drug-induced adverse effects"}, {"measurement": "incidence of mycobacteria-negative sputum cultures", "setting": "mycobacteria", "value": "increased"}]}
{"molecule": "NC(=O)c1ncn([C@@H]2O[C@H](CO)[C@@H](O)[C@H]2O)n1", "note": "[ribavirin, Ribavirin, reference compound]", "values": [{"measurement": "time to death", "setting": "PIC", "value": "prolonged"}]}
{"molecule": "IFNα", "values": [{"measurement": "mortality", "setting": "PIC", "value": "No significant improvement in mortality"}]}
{"molecule": "poly (ICLC)", "values": [{"measurement": "Overall mortality and time to death", "setting": "Machupo", "value": "not improved"}, {"measurement": "viremia", "setting": "Machupo", "value": "significantly higher"}]}
